Read-outs that look alike come from different tables or passages of the source.
Columns and labels:
Format in all cases: binding
[1] = target: broad panel of kinases (Homo sapiens, UniProt O00444); settings: PLK4; 1 μM
[2] = target: broad panel of kinases (Homo sapiens, UniProt O14920); settings: IKK-beta; 1 μM
[3] = target: broad panel of kinases (Homo sapiens, UniProt O14976); settings: GAK; 1 μM
[4] = target: broad panel of kinases (Homo sapiens, UniProt O15111); settings: IKK-alpha; 1 μM
[5] = target: broad panel of kinases (Homo sapiens, UniProt O43353); settings: RIPK2; 1 μM
[6] = target: broad panel of kinases (Homo sapiens, UniProt O94806); settings: PRKD3; 1 μM
[7] = target: broad panel of kinases (Homo sapiens, UniProt O95382); settings: ASK2; 1 μM
[8] = target: broad panel of kinases (Homo sapiens, UniProt P00519, H396P); settings: 1 μM
[9] = target: broad panel of kinases (Homo sapiens, UniProt P00533, DEL752-759); settings: EGFR(S752-I759del); 1 μM
[10] = target: broad panel of kinases (Homo sapiens, UniProt P06241); settings: FYN; 1 μM
broad panel of kinases (Homo sapiens, UniProt P06241), sequence (P06241 2-537 limits assumed): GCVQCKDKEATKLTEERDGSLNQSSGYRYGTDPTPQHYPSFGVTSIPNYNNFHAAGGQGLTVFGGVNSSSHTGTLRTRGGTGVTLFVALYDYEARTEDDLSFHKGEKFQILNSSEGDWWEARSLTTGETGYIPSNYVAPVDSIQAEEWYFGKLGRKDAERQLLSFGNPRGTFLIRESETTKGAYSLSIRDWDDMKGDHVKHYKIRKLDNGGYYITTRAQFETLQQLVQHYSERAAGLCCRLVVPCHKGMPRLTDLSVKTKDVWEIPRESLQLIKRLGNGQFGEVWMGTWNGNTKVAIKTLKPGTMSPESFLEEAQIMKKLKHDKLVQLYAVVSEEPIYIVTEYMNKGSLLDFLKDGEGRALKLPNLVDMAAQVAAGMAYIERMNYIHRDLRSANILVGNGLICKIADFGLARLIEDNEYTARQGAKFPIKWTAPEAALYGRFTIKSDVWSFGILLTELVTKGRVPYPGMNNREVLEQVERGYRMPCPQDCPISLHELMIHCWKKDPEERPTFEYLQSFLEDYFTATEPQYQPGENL

[11] = target: broad panel of kinases (Homo sapiens, UniProt P07949); settings: RET; 1 μM
broad panel of kinases (Homo sapiens, UniProt P07949), sequence (P07949 29-1114 limits assumed): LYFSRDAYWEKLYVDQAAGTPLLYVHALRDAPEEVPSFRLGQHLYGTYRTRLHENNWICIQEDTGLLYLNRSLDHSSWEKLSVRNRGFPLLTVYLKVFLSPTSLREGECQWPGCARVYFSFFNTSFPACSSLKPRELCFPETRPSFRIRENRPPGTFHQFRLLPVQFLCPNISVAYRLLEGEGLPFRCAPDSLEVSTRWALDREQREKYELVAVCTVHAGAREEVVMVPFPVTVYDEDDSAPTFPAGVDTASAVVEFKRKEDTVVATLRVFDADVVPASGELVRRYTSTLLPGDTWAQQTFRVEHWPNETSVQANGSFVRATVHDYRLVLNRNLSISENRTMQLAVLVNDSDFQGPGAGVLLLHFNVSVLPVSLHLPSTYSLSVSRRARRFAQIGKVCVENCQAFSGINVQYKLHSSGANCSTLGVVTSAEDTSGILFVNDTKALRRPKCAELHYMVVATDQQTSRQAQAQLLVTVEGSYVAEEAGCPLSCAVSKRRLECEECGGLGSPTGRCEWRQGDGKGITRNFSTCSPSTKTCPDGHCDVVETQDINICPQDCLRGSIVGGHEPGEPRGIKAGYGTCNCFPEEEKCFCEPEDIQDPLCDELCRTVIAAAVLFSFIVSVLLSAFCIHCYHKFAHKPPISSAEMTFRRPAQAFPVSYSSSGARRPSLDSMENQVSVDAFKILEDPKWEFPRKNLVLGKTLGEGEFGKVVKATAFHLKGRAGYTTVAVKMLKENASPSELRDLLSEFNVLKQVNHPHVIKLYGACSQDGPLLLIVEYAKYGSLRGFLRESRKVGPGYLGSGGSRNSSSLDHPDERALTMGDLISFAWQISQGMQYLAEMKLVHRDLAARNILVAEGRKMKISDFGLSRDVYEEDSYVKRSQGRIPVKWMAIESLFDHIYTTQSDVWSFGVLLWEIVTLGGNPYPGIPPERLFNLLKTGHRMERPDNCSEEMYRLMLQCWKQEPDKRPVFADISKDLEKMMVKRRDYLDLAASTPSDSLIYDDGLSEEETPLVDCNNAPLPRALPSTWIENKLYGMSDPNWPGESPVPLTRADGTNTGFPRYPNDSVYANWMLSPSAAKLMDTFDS

[12] = target: broad panel of kinases (Homo sapiens, UniProt P10721, L576P); settings: KIT(L576P); 1 μM
[13] = target: broad panel of kinases (Homo sapiens, UniProt P17948); settings: FLT1; 1 μM
broad panel of kinases (Homo sapiens, UniProt P17948), sequence (P17948 27-1338 limits assumed): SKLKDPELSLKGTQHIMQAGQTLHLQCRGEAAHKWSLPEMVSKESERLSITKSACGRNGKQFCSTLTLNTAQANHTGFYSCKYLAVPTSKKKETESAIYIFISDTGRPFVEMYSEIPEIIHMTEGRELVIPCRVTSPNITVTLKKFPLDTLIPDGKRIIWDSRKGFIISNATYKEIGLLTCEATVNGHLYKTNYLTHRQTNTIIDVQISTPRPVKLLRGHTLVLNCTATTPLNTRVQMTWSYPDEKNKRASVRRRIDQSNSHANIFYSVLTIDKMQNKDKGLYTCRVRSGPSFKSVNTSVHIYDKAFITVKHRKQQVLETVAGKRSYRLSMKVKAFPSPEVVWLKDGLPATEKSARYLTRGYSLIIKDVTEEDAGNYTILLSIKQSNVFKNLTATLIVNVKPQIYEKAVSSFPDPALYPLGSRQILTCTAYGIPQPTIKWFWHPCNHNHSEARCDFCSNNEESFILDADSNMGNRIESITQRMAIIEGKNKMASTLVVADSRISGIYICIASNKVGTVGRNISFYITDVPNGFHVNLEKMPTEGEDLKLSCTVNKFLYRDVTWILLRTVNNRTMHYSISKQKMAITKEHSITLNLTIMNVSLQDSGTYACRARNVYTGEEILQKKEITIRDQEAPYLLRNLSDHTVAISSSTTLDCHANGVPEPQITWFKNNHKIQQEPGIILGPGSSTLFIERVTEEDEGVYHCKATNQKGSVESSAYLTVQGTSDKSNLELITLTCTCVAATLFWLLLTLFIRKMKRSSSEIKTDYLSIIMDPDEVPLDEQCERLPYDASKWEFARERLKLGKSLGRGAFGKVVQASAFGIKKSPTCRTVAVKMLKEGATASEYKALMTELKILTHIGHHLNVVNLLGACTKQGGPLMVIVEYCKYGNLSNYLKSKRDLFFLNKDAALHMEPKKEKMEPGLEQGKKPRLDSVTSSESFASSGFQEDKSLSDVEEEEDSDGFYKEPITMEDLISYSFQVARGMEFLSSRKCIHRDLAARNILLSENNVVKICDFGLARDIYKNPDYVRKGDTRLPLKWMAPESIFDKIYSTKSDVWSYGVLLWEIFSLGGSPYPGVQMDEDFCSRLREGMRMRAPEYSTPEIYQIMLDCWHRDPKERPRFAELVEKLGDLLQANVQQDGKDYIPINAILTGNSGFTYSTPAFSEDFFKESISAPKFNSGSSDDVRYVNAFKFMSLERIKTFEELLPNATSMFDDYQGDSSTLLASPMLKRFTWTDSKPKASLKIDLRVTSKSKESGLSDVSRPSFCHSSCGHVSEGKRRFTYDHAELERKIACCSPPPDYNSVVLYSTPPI

[14] = target: broad panel of kinases (Homo sapiens, UniProt P19525); settings: PRKR; 1 μM
broad panel of kinases (Homo sapiens, UniProt P19525), sequence (P19525 2-551 limits assumed): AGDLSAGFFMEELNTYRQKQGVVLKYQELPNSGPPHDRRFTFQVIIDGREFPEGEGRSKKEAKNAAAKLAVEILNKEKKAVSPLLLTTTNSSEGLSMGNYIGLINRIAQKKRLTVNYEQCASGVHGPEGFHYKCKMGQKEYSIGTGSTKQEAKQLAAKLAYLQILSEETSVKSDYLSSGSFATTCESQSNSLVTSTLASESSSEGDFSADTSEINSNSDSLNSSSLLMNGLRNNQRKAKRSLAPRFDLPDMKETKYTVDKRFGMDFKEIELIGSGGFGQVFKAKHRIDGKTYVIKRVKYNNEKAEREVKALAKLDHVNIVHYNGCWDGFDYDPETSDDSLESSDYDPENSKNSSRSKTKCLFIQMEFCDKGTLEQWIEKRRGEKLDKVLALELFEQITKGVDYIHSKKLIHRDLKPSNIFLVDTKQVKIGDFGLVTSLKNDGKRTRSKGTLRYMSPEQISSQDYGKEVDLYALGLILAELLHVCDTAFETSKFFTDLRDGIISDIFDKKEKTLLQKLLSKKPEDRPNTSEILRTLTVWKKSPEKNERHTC

[15] = target: broad panel of kinases (Homo sapiens, UniProt P21127); settings: CDC2L1; 1 μM
[16] = target: broad panel of kinases (Homo sapiens, UniProt P29322); settings: EPHA8; 1 μM
[17] = target: broad panel of kinases (Homo sapiens, UniProt P29376); settings: LTK; 1 μM
[18] = target: broad panel of kinases (Homo sapiens, UniProt P42336, M1043I); settings: PIK3CA(M1043I); 1 μM
[19] = target: broad panel of kinases (Homo sapiens, UniProt P54753); settings: EPHB3; 1 μM
[20] = target: broad panel of kinases (Homo sapiens, UniProt Q16620); settings: TRKB; 1 μM
[21] = target: broad panel of kinases (Homo sapiens, UniProt Q16816); settings: PHKG1; 1 μM
[22] = target: broad panel of kinases (Homo sapiens, UniProt Q32MK0); settings: MLCK; 1 μM
[23] = target: broad panel of kinases (Homo sapiens, UniProt Q5S007, G2019S); settings: LRRK2(G2019S); 1 μM
[24] = target: broad panel of kinases (Homo sapiens, UniProt Q6PHR2); settings: ULK3; 1 μM
[25] = target: broad panel of kinases (Homo sapiens, UniProt Q8TBX8); settings: PIP5K2C; 1 μM
[26] = target: broad panel of kinases (Homo sapiens, UniProt Q8TD08); settings: ERK8; 1 μM
[27] = target: broad panel of kinases (Homo sapiens, UniProt Q8TDX7); settings: NEK7; 1 μM
[28] = target: broad panel of kinases (Homo sapiens, UniProt Q8WXR4); settings: MYO3B; 1 μM
[29] = target: broad panel of kinases (Homo sapiens, UniProt Q92630); settings: DYRK2; 1 μM
[30] = target: broad panel of kinases (Homo sapiens, UniProt Q99640); settings: PKMYT1; 1 μM
[31] = target: broad panel of kinases (Homo sapiens, UniProt Q9BQI3); settings: EIF2AK1; 1 μM
[32] = target: broad panel of kinases (Homo sapiens, UniProt Q9BX84); settings: TRPM6; 1 μM
[33] = target: broad panel of kinases (Homo sapiens, UniProt Q9BXA7); settings: TSSK1B; 1 μM
[34] = target: broad panel of kinases (Homo sapiens, UniProt Q9H093); settings: SNARK; 1 μM
[35] = target: broad panel of kinases (Homo sapiens, UniProt Q9NYL2); settings: ZAK; 1 μM
[36] = target: broad panel of kinases (Homo sapiens, UniProt Q9UM73, L1196M); settings: ALK(L1196M); 1 μM
broad panel of kinases (Homo sapiens, UniProt Q9UM73, L1196M), sequence (Q9UM73 19-1620 L1196M limits assumed): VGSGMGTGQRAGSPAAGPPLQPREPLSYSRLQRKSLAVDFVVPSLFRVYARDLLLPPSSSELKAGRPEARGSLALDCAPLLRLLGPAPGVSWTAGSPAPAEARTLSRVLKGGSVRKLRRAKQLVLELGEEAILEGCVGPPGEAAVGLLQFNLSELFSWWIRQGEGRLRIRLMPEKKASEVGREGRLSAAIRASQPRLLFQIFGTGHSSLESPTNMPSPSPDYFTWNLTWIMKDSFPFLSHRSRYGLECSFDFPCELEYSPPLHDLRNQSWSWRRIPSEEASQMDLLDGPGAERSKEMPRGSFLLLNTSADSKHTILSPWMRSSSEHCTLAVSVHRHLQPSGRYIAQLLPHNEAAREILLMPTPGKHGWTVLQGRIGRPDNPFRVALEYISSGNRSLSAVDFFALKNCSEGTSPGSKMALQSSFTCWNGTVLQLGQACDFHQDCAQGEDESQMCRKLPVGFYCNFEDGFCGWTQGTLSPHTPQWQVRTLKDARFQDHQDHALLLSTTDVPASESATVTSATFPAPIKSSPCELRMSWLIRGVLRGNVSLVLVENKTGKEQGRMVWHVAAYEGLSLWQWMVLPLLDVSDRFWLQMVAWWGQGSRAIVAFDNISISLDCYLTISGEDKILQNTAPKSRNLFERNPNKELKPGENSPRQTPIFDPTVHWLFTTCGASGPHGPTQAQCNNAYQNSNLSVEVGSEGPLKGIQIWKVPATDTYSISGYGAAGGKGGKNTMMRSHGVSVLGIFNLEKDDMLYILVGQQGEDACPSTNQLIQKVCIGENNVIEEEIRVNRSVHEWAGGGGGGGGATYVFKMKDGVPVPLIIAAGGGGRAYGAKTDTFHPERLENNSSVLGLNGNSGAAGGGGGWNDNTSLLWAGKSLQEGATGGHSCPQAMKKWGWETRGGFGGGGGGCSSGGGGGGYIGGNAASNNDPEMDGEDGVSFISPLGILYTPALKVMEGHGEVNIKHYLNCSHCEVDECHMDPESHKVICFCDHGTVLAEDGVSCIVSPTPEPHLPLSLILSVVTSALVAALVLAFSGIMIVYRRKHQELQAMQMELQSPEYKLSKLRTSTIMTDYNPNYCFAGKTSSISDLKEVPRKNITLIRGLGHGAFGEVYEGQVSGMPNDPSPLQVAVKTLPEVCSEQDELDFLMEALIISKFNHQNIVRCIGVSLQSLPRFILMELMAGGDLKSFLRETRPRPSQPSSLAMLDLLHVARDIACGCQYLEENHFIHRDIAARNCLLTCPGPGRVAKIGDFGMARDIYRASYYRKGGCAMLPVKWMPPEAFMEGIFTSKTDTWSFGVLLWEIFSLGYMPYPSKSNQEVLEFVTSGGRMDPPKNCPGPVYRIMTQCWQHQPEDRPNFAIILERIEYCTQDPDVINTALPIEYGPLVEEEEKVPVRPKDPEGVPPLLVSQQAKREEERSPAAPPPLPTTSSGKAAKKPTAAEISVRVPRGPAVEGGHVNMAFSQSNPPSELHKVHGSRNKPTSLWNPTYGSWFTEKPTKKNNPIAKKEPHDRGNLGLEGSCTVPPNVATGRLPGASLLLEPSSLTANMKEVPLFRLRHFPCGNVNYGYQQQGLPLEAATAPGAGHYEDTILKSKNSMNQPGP

[37] = target: broad panel of kinases (Homo sapiens, UniProt Q9UPE1); settings: SRPK3; 1 μM

Structure (SMILES)	percent of control binding remaining (lower = stronger binding) [1]	percent of control binding remaining (lower = stronger binding) [2]	percent of control binding remaining (lower = stronger binding) [3]	percent of control binding remaining (lower = stronger binding) [4]	percent of control binding remaining (lower = stronger binding) [5]	percent of control binding remaining (lower = stronger binding) [6]	percent of control binding remaining (lower = stronger binding) [7]	percent of control binding remaining (lower = stronger binding) [9]	percent of control binding remaining (lower = stronger binding) [10]	percent of control binding remaining (lower = stronger binding) [11]	percent of control binding remaining (lower = stronger binding) [12]	percent of control binding remaining (lower = stronger binding) [13]	percent of control binding remaining (lower = stronger binding) [14]	percent of control binding remaining (lower = stronger binding) [15]	percent of control binding remaining (lower = stronger binding) [16]	percent of control binding remaining (lower = stronger binding) [17]	percent of control binding remaining (lower = stronger binding) [18]	percent of control binding remaining (lower = stronger binding) [19]	percent of control binding remaining (lower = stronger binding) [20]	percent of control binding remaining (lower = stronger binding) [21]	also measured
C=CC(=O)N1CC[C@H](Nc2nc(CN3CCOCC3)cc(Nc3ncc(C(=O)Nc4c(C)cccc4C)s3)n2)C1 [Example I-2]	73%	75%	11%	93%	14%	81%	92%	17%	0.3%	100%	0%	93%	89%	88%	0.75%	100%	96%	0%	94%	100%	percent of control binding remaining (lower = stronger binding) ([8]; ABL1(H396P)-nonphosphorylated): 0%; percent of control binding remaining (lower = stronger binding) ([8]; ABL1(H396P)-phosphorylated): 0%; percent of control binding remaining (lower = stronger binding) [22]: 100%; percent of control binding remaining (lower = stronger binding) [23]: 100%; percent of control binding remaining (lower = stronger binding) [24]: 97%; percent of control binding remaining (lower = stronger binding) [25]: 100%; percent of control binding remaining (lower = stronger binding) [26]: 97%; percent of control binding remaining (lower = stronger binding) [27]: 100%; percent of control binding remaining (lower = stronger binding) [28]: 93%; percent of control binding remaining (lower = stronger binding) [29]: 88%; percent of control binding remaining (lower = stronger binding) [30]: 59%; percent of control binding remaining (lower = stronger binding) [31]: 100%; percent of control binding remaining (lower = stronger binding) [32]: 61%; percent of control binding remaining (lower = stronger binding) [33]: 73%; percent of control binding remaining (lower = stronger binding) [34]: 100%; percent of control binding remaining (lower = stronger binding) [35]: 87%; percent of control binding remaining (lower = stronger binding) [36]: 72%; percent of control binding remaining (lower = stronger binding) [37]: 100%
C=CC(=O)N1CC[C@H](Nc2nccc(Nc3ncc(C(=O)Nc4c(C)cccc4C)s3)n2)C1 [Example I-3]	82%	86%	11%	100%	31%	81%	98%	4.6%	0.5%	86%	0%	86%	69%	78%	0.45%	100%	100%	0%	92%	99%	% change compared to control ([8]; ABL1(H396P)-nonphosphorylated): 0.05%; % change compared to control ([8]; ABL1(H396P)-phosphorylated): 0%; percent of control binding remaining (lower = stronger binding) [22]: 100%; percent of control binding remaining (lower = stronger binding) [23]: 99%; percent of control binding remaining (lower = stronger binding) [24]: 98%; percent of control binding remaining (lower = stronger binding) [25]: 100%; percent of control binding remaining (lower = stronger binding) [26]: 99%; percent of control binding remaining (lower = stronger binding) [27]: 98%; percent of control binding remaining (lower = stronger binding) [28]: 86%; percent of control binding remaining (lower = stronger binding) [29]: 74%; percent of control binding remaining (lower = stronger binding) [30]: 47%; percent of control binding remaining (lower = stronger binding) [31]: 97%; percent of control binding remaining (lower = stronger binding) [32]: 63%; percent of control binding remaining (lower = stronger binding) [33]: 100%; percent of control binding remaining (lower = stronger binding) [34]: 100%; percent of control binding remaining (lower = stronger binding) [35]: 94%; percent of control binding remaining (lower = stronger binding) [36]: 76%; percent of control binding remaining (lower = stronger binding) [37]: 97%

Reference: patent publication US10844077B2, “Thiazolyl-containing compounds for treating proliferative diseases” (Dana-Farber Cancer Institute, Inc., priority 2014, dated 2020)
